The term Kd denotes a measure of binding affinity in units of concentration.

Assay [1] concerns the target T1, AR (Rattus norvegicus, UniProt P15207).
T1 sequence (P15207 1-902): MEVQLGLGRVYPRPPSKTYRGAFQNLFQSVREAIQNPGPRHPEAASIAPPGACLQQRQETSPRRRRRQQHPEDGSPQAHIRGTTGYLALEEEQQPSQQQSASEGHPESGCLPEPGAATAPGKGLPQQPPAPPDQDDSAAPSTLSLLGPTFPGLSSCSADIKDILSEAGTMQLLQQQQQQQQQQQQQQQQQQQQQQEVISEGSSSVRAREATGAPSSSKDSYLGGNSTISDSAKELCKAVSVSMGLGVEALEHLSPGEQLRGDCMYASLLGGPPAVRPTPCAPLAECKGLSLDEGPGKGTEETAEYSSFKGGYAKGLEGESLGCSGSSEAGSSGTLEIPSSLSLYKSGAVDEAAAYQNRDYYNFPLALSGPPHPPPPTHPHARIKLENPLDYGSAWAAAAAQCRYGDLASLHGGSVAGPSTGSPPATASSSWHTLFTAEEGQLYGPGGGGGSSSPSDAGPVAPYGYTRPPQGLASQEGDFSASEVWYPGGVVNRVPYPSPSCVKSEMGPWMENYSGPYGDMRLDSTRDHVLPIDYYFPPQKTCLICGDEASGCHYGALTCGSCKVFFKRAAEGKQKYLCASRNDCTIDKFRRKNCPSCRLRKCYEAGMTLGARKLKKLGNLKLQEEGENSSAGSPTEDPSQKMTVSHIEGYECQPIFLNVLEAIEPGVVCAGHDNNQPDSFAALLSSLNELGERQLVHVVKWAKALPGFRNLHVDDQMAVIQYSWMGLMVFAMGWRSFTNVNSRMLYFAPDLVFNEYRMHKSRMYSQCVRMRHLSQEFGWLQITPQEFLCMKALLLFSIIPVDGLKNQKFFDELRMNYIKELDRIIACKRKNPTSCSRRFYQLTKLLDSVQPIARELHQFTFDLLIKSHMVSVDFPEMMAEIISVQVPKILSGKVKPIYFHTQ
As to conditions: castrated rats. The text has this: The activity of compounds of the present invention as AR agonists was investigated in an immature male rat model, a recognized test of anabolic effects in muscle and sustaining effects in sex organs for a given compound, as described in L. G. Hershberger et al., Proc. Soc. […] Yak. Ken. Nem.
The basis of this assay lies in the well-defined action of androgenic agents on the maintenance and growth of muscle tissues and sexual accessory organs in animals and man. […] J. Anat. […] Ital. Biol. Sper. […] II. […] Ital. Biol. Sper. […] As described above, the effects of androgens on maintenance of male sexual accessory organs, such as the prostate and seminal vesicles, is well described. Castration results in rapid involution and atrophy of the prostate and seminal vesicles. This effect can be reversed by exogenous addition of androgens. Since both the levator ani muscle and the male sex organs are the tissues most responsive to the effects of androgenic agents, this model is used to determine the androgen dependent reversal of atrophy in the levator ani muscle and the sex accessory organs in immature castrated rats. Sexually mature rats (200-250 g, 6-8 weeks-old, Sprague-Dawley, Harlan) were acquired castrated from the vendor (Taconic). The rats were divided into groups and treated daily for 7 to 14 days with one of the following: • 1. Control vehicle • 2. […]

Assay [2] addresses T1, AR.
In assay [3] the target is wild type AR. The following applies: read-out: Kd for [^3H]-DHT; MDA 453 cells, saturation analysis, Scatchard. The protocol: For the saturation analysis, the difference between the total binding and the non-specific binding, was defined as specific binding.
Two replicates were used for each sample. After 4 hours at 37° C., cells were washed, harvested and counted as described above. […] The KI, values were determined by application of the Cheng-Prusoff equation to the IC50 values, where:
[formula] After correcting for non-specific binding, IC50 values were determined. […]

Read-outs that look alike come from different tables or passages of the source.

Consider `CCC(=O)O[C@H]1CC[C@H]2[C@@H]3CCC4=CC(=O)CC[C@]4(C)[C@H]3CC[C@]12C` [TP, testosterone propionate], for which the “EC50 (increase in organ weight)” value in assay [1] (3 days dosing) is recorded as about 0.03 mg; in assay [2] (immature castrated rats, 3 days dosing), about 0.03 mg. For the same molecule, the “higher potency than free T” value in assay [1] (organ weight increase) is given as 10-30 fold; in assay [2] (organ weight increase, immature castrated rats), 10-30 fold. For the same molecule, in assay [2] (immature castrated rat model), the ED80 is recorded as 0.1 mg.
Consider “tritiated dihydrotestosterone [[^3H]-DHT]”, for which the Kd in assay [3] worked out at 0.7 nM.

(Values after patent publication US7342034B2, “Fused heterocyclic compounds and analogs thereof, modulators of nuclear hormone receptor function” (Bristol-Myers Squibb Company, priority 2001, dated 2008).)
